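Five concentrations, 48 hours, 96-well plates. GI50: concentration for 50% inhibition of growth.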 Calls of active or inactive are those of the source. Cut-off read from the data, not from the text of the source: active = GI50 up to about 1.1 µM and inactive = higher.
Key:
Test in all cases: growth of human tumour cells (NCI), 48 h
Malme-3M = test system: Malme-3M
SR = test system: SR
UACC-257 = test system: UACC-257
UO-31 = test system: UO-31
NCI-H23 = test system: NCI-H23
NCI-H522 = test system: NCI-H522
BT-549 = test system: BT-549
HL-60 = test system: HL-60
K562 = test system: K562
CCRF-CEM = test system: CCRF-CEM
SK-OV-3 = test system: SK-OV-3
DU-145 = test system: DU-145
RXF 393 = test system: RXF 393
COLO 205 = test system: COLO 205
OVCAR-8 = test system: OVCAR-8
HCT-15 = test system: HCT-15
EKVX = test system: EKVX
A549 = test system: A549
KM12 = test system: KM12
786-0 = test system: 786-0
HCT-116 = test system: HCT-116
CAKI-1 = test system: CAKI-1
SN12C = test system: SN12C
MCF7 = test system: MCF7
SK-MEL-5 = test system: SK-MEL-5
ACHN = test system: ACHN
SF-539 = test system: SF-539
HCC 2998 = test system: HCC 2998
A498 = test system: A498
Hs-578T = test system: Hs-578T
NCI-H226 = test system: NCI-H226
SNB-75 = test system: SNB-75
MDA-MB-231 = test system: MDA-MB-231
MDA-N = test system: MDA-N
MDA-MB-435 = test system: MDA-MB-435
NCI-H460 = test system: NCI-H460
SW-620 = test system: SW-620
OVCAR-3 = test system: OVCAR-3
SF-268 = test system: SF-268
SF-295 = test system: SF-295
SNB-19 = test system: SNB-19
RPMI-8226 = test system: RPMI-8226
LOX IMVI = test system: LOX IMVI
SK-MEL-28 = test system: SK-MEL-28
IGROV-1 = test system: IGROV-1
MOLT-4 = test system: MOLT-4
OVCAR-5 = test system: OVCAR-5
NCI/ADR-RES = test system: NCI/ADR-RES
TK-10 = test system: TK-10
PC-3 = test system: PC-3
UACC-62 = test system: UACC-62
OVCAR-4 = test system: OVCAR-4
HOP-62 = test system: HOP-62
T47D = test system: T47D
U-251 = test system: U-251
SK-MEL-2 = test system: SK-MEL-2
M14 = test system: M14

For `CCOC(=O)c1cc(Br)c(-c2onc(C)c2Br)n1C`, the GI50 (Malme-3M) was 52.8 µM (inactive), the GI50 (SR) was 20.5 µM (inactive) and the GI50 (UACC-257) was 44.7 µM (inactive). The GI50 (UO-31) was 45.9 µM (inactive), the GI50 (NCI-H23) was 47.8 µM (inactive) and the GI50 (NCI-H522) was 19.1 µM (inactive). The GI50 (BT-549) was 41.4 µM (inactive), the GI50 (HL-60) was 11.8 µM (inactive) and the GI50 (K562) was 30.5 µM (inactive). The GI50 (CCRF-CEM) was 30.7 µM (inactive), the GI50 (SK-OV-3) was 21.9 µM (inactive) and the GI50 (DU-145) was 93.5 µM (inactive). For the same compound, the GI50 (RXF 393) was 10.2 µM (inactive), the GI50 (COLO 205) was 28.4 µM (inactive) and the GI50 (OVCAR-8) was 63.4 µM (inactive). For the same compound, the GI50 (HCT-15) was 37.6 µM, the GI50 (EKVX) was 6.08 µM (inactive) and the GI50 (A549) was 23.3 µM (inactive). For the same compound, the GI50 (KM12) was 21.8 µM (inactive), the GI50 (786-0) was 25.9 µM (inactive) and the GI50 (HCT-116) was 18.9 µM (inactive). The GI50 (CAKI-1) was 12.8 µM (inactive), the GI50 (SN12C) was 23.1 µM (inactive) and the GI50 (MCF7) was 23.6 µM (inactive). The GI50 (SK-MEL-5) was 16.9 µM (inactive), the GI50 (ACHN) was 41.6 µM (inactive) and the GI50 (SF-539) was > 100 µM (inactive). For the same compound, the GI50 (HCC 2998) was 85.9 µM (inactive), the GI50 (A498) was 45.2 µM (inactive) and the GI50 (Hs-578T) was 10.8 µM (inactive). For the same compound, the GI50 (NCI-H226) was 55.2 µM (inactive), the GI50 (SNB-75) was 18.1 µM (inactive) and the GI50 (MDA-MB-231) was 24.2 µM (inactive). The GI50 (MDA-N) was 43 µM (inactive), the GI50 (MDA-MB-435) was 34.8 µM (inactive) and the GI50 (NCI-H460) was 40 µM (inactive). For the same compound, the GI50 (SW-620) was 49.7 µM (inactive), the GI50 (OVCAR-3) was 31.6 µM (inactive) and the GI50 (SF-268) was 75 µM (inactive). The GI50 (SF-295) was 23.9 µM (inactive), the GI50 (SNB-19) was 46.2 µM (inactive) and the GI50 (RPMI-8226) was 55 µM (inactive). For the same compound, the GI50 (LOX IMVI) was 34 µM (inactive), the GI50 (SK-MEL-28) was > 100 µM (inactive) and the GI50 (IGROV-1) was 59.8 µM (inactive). The GI50 (MOLT-4) was 15 µM (inactive), the GI50 (OVCAR-5) was 19.4 µM (inactive) and the GI50 (NCI/ADR-RES) was 37.2 µM (inactive). For the same compound, the GI50 (TK-10) was 66.8 µM (inactive), the GI50 (PC-3) was 35.3 µM (inactive) and the GI50 (UACC-62) was 27.9 µM (inactive). The GI50 (OVCAR-4) was 38.5 µM (inactive), the GI50 (HOP-62) was 35.6 µM (inactive) and the GI50 (T47D) was 15.6 µM (inactive). For the same compound, the GI50 (U-251) was 43.1 µM (inactive), the GI50 (SK-MEL-2) was 36.6 µM (inactive) and the GI50 (M14) was 40.6 µM (inactive).

Reference: ChEMBL document CHEMBL1201862, “PubChem BioAssay data set” (2004)
